From patent US12251459B2, “Compositions, formulations, and methods for hair treatment” (Oddity Labs, LLC, priority 2022, dated 2025)

Each compound was assayed on human hair follicle dermal papilla cells (hFDPC) (assay: Human follicle dermal papilla cells (hFDPC) proliferation assay). Conditions: hFDPCs supplemented with BIO, BMP-2 and FGFβ.
Type: cell-based
Description: In Table 8, A represents less than 20% of increased proliferation of hFDPCs, B represents 20-40%, and C represents larger than 40% of increased proliferation of hFDPCs.

Structure (SMILES)	Percent Increase Proliferation of hFDPCs (%)
Cc1cccc(CN2CCN(c3ncccn3)CC2)c1 [VII-15, Pyrimidine, 2-[4-[(3-methylphenyl)methyl]-1-piperazinyl]-]	A (A represents less than 20% of increased proliferation of hFDPCs)
COc1ccc(/C=C2\C(=O)NC(=O)N(C)C2=O)c(OC)c1 [I-11, 2,4,6(1H,3H,5H)-Pyrimidinetrione, 5-[(2,4-dimethoxyphenyl)methylene]-1-methyl-, (5E)-]	A (A represents less than 20% of increased proliferation of hFDPCs)
COc1ccc(N2CCN(C(=O)c3cc(-c4cccs4)nc4ccccc34)CC2)cc1 [III-1, Methanone, [4-(4-methoxyphenyl)-1-piperazinyl][2-(2-thienyl)-4-quinolinyl]-]	A (A represents less than 20% of increased proliferation of hFDPCs)
C=CCOc1ccc(/C=C2/C(=O)NC(=O)N(CC=C)C2=O)cc1OC [I-7]	A (A represents less than 20% of increased proliferation of hFDPCs)
C=CCc1cc(/C=C2\C(=O)NC(=O)N(c3ccc(C)c(C)c3)C2=O)cc(OC)c1O [I-4]	A (A represents less than 20% of increased proliferation of hFDPCs)
O=C1CNCc2[nH]c3ccccc3c2N1c1ccccc1 [VII-10, 1,4-Diazepino[6,5-b] indol-2(1H)-one, 3,4,5,6-tetrahydro-1-phenyl-]	B (B represents 20-40%)
CN1C(=O)NC(=O)/C(=C\c2cccc(OCC(=O)O)c2)C1=O [I-14]	A (A represents less than 20% of increased proliferation of hFDPCs)
C=CCN1C(=O)NC(=O)/C(=C\c2ccc(OC)cc2OC)C1=O [I-6, 2,4,6(1H,3H,5H)-Pyrimidinetrione, 5-[(2,4-dimethoxyphenyl)methylene]-1-(2-propen-1-yl)-]	A (A represents less than 20% of increased proliferation of hFDPCs)
C=CCc1cc(/C=C2\C(=O)NC(=O)N(C)C2=O)cc(OC)c1O [I-16]	A (A represents less than 20% of increased proliferation of hFDPCs)
Cc1ccc(-c2cc(C(=O)NNC(=O)NC34CC5CC(CC(C5)C3)C4)c3ccccc3n2)c(C)c1 [III-5, 4-Quinolinecarboxylic acid, 2-(2,4-dimethylphenyl)-, 2-[(tricyclo[3.3.1.1^3,7]dec-1-ylamino)carbonyl]hydrazide]	A (A represents less than 20% of increased proliferation of hFDPCs)
COC(=O)c1cccc(NC(=O)c2cc(NC(=O)c3ccccc3)cc(C(=O)Nc3cccc(C(=O)OC)c3)c2)c1 [VII-23, Benzoic acid, 3,3′-[[5-(benzoylamino)-1,3-phenylene]bis(carbonylimino)] bis-, dimethyl ester (9CI)]	B (B represents 20-40%)
Cc1cccc(Cn2cnc(NC(=O)c3cc(-c4cccnc4)nc4ccc(C)cc34)n2)c1 [III-2, 4-Quinolinecarboxamide, 6-methyl-N-[1-[(3-methylphenyl)methyl]-1H-1,2,4-triazol-3-yl]-2-(3-pyridinyl)-]	A (A represents less than 20% of increased proliferation of hFDPCs)
CCOC(=O)c1cnn(-c2ccc(C(=O)Nc3ccc(C(=O)NCC(=O)OC)cc3)cc2)c1C [VII-6, 1H-Pyrazole-4-carboxylic acid, 1-[4-[[[4-[[(2-methoxy-2-oxoethyl)amino]carbonyl]phenyl]amino]carbonyl]phenyl]-5-methyl-, ethyl ester]	A (A represents less than 20% of increased proliferation of hFDPCs)
O=C(c1cccs1)N1CCN(C(=O)c2cccc3ccccc23)CC1 [VII-18, Piperazine, 1-(1-naphthalenylcarbonyl)-4-(2-thienylcarbonyl)-(9CI)]	A (A represents less than 20% of increased proliferation of hFDPCs)
COc1ccc(S(=O)(=O)N2CCC(C(=O)N3CCN(Cc4ccc5c(c4)OCO5)CC3)CC2)cc1C [VI-3, Methanone, [4-(1,3-benzodioxol-5-ylmethyl)-1-piperazinyl][1-[(4-methoxy-3-methylphenyl)sulfonyl]-4-piperidinyl]-]	B (B represents 20-40%)
CSc1nnc(SCc2cc(=O)oc3cc(O)ccc23)s1 [IV-2, 2H-1-Benzopyran-2-one, 7-hydroxy-4-[[[5-(methylthio)-1,3,4-thiadiazol-2-yl]thio]methyl]-]	A (A represents less than 20% of increased proliferation of hFDPCs)
NC1=NC2(CCCCC2)n2c(nc3ccccc32)N1 [VII-11, Spiro[cyclohexane-1, 4′(3′H)-[1,3,5]triazino[1,2-a]benzimidazol]-2′-amine]	A (A represents less than 20% of increased proliferation of hFDPCs)
C=CCc1cc(/C=C2\C(=O)NC(=S)N(C)C2=O)cc(OC)c1OCC [I-10]	A (A represents less than 20% of increased proliferation of hFDPCs)

Structure (SMILES)	Percent Increase Proliferation of hFDPCs (%)
CCS(=O)(=O)N1CCN(c2ncnc3cc[nH]c23)CC1 [V-4, 5H-Pyrrolo[3,2-d] pyrimidine, 4-[4-(ethylsulfonyl)-1-piperazinyl]-]	A (A represents less than 20% of increased proliferation of hFDPCs)
Cc1ccc(OCC(=O)N2CCN(c3nnc(-c4ccc(C)cc4)c4ccccc34)CC2)cc1 [II-5, Ethanone, 2-(4-methylphenoxy)-1-[4-[4-(4-methylphenyl)-1-phthalazinyl]-1-piperazinyl]-]	B (B represents 20-40%)
NC1=NC2(CCCCCC2)n2c(nc3ccccc32)N1 [VII-9, Spiro[cycloheptane-1, 4′(1′H)-[1,3,5]triazino[1,2-a]benzimidazol]-2′-amine]	B (B represents 20-40%)
CC1(c2ccccc2)NC(=O)N(Cc2cc(=O)n3ccccc3n2)C1=O (centres unmarked) [VII-25, 2,4-Imidazolidinedione, 5-methyl-3-[(4-oxo-4H-pyrido[1,2-a]pyrimidin-2-yl)methyl]-5-phenyl-]	B (B represents 20-40%)
COc1ccc(S(=O)(=O)Nc2ccc(S(=O)(=O)NCCc3ccccc3)cc2)cc1 [VI-5, Benzenesulfonamide, 4-methoxy-N-[4-[[(2-phenylethyl)amino]sulfonyl]phenyl]-]	A (A represents less than 20% of increased proliferation of hFDPCs)
COc1cc(/C=C2\C(=O)NC(=O)N(Cc3ccccc3)C2=O)cc(OC)c1O [I-5, 2,4,6(1H,3H,5H)-Pyrimidinetrione, 5-[(4-hydroxy-3,5-dimethoxyphenyl)methylene]-1-(phenylmethyl)-]	B (B represents 20-40%)
CCOCCc1nnc(NC(=O)c2cc(-c3ccccc3)nc3ccccc23)s1 [III-4, 4-Quinolinecarboxamide, N-[5-(2-ethoxyethyl)-1,3,4-thiadiazol-2-yl]-2-phenyl-]	B (B represents 20-40%)
CCC(C)Cc1c(C)sc2[nH]c(SCc3cc(=O)oc4cc(O)ccc34)nc(=O)c12 (centres unmarked) [IV-4, Thieno[2,3-d] pyrimidin-4(1H)-one, 2-[[(7-hydroxy-2-oxo-2H-1-benzopyran-4-yl)methyl]thio]-6-methyl-5-(2-methylbutyl)-]	A (A represents less than 20% of increased proliferation of hFDPCs)
C=CCc1cc(/C=C2\C(=O)NC(=O)N(c3ccc(C(C)C)cc3)C2=O)cc(OC)c1O [I-1]	A (A represents less than 20% of increased proliferation of hFDPCs)
CCOC(=O)c1cnn(-c2ccc(C(=O)Nc3ccc(S(=O)(=O)CC)cc3)cc2)c1C [VII-7, 1H-Pyrazole-4-carboxylic acid, 1-[4-[[[4-(ethylsulfonyl)phenyl]amino]carbonyl]phenyl]-5-methyl-, ethyl ester]	B (B represents 20-40%)
CC(C)(C)Nc1nnc(SCc2cc(=O)oc3cc(O)ccc23)s1 [IV-1, 2H-1-Benzopyran-2-one, 4-[[[5-[(1,1-dimethylethyl)amino]-1,3,4-thiadiazol-2-yl]thio]methyl]-7-hydroxy-]	B (B represents 20-40%)
CCCCN1CCc2cc(/C=C3\C(=O)NC(=O)N(C)C3=O)ccc21 [I-12, 2,4,6(1H,3H,5H)-Pyrimidinetrione, 5-[(1-butyl-2,3-dihydro-1H-indol-5-yl)methylene]-1-methyl-]	B (B represents 20-40%)
Cc1ccc(S(=O)(=O)N2CCC(C(=O)N3CCN(Cc4nc5ccccc5s4)CC3)CC2)cc1 [VI-4, Methanone, [4-(2-benzothiazolylmethyl)-1-piperazinyl][1-[(4-methylphenyl)sulfonyl]-4-piperidinyl]-]	A (A represents less than 20% of increased proliferation of hFDPCs)
N#Cc1ccc(S(=O)(=O)N2CCC(C(=O)N3CCN(Cc4ccc5c(c4)OCO5)CC3)CC2)cc1 [VI-2, Benzonitrile, 4-[[4-[[4-(1,3-benzodioxol-5-ylmethyl)-1-piperazinyl]carbonyl]-1-piperidinyl]sulfonyl]-]	B (B represents 20-40%)
Oc1c2c(c(O)n1C1CCCCC1)CC=CC2 [VII-13, 1H-Isoindole-1,3(2H)-dione, 2-cyclohexyl-3a,4,7,7a-tetrahydro-]	A (A represents less than 20% of increased proliferation of hFDPCs)
COc1ccccc1-n1c(SCc2cc(=O)oc3cc(O)ccc23)nc2ccccc2c1=O [IV-3, 4(3H)-Quinazolinone, 2-[[(7-hydroxy-2-oxo-2H-1-benzopyran-4-yl)methyl]thio]-3-(2-methoxyphenyl)-]	B (B represents 20-40%)
Cc1ccc(-c2nn(CC(=O)NCCc3c(C)n(C)c4ccccc34)c(=O)c3ccccc23)cc1S(=O)(=O)N1CCOCC1 [VII-21, 2(1H)-Phthalazineacetamide, N-[2-(1,2-dimethyl-1H-indol-3-yl)ethyl]-4-[4-methyl-3-(4-morpholinylsulfonyl)phenyl]-1-oxo-]	A (A represents less than 20% of increased proliferation of hFDPCs)
